Test results published in patent US20080176898A1, “Phenyl Acetamides” (Bayer HealthCare AG, priority 2004, published 2008).

Tests used:
human CysLT1 receptor = target: T1, human CysLT1 receptor (Homo sapiens, UniProt Q9Y271); experiment: Cellular in vitro test to determine the CysLT1 activity (aequorin luminescence, CHO K1 cells); type: cell-based; details: recombinant CHO K1 cells with aequorin and human CysLT1 receptor; antagonism of LTD4 (3×10^−9 M) induced calcium release; 15 minutes preincubation
T1 construct: expressed in transfected cells; host or cells: CHO K1 cells constitutively expressing aequorin
T1 sequence (Q9Y271 1-337): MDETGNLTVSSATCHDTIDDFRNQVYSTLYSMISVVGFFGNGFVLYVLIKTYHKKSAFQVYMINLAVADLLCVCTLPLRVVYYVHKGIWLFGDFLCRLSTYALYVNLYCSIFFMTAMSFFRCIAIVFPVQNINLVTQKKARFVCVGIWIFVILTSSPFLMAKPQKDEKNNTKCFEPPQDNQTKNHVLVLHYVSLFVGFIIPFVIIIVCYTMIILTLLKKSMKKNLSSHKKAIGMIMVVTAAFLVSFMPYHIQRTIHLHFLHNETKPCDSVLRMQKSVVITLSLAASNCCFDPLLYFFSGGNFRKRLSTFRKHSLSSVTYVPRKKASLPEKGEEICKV
From the text: 2. Cellular In Vitro Test to Determine the CysLT1 Activity
A recombinant cell line is used to identify antagonists of the human cysteinyl-leukotriene 1 receptor (CysLT1R) and to quantify the activity of the substances described herein. The cell is originally derived from a hamster ovary epithelial cell (Chinese Hamster Ovary, CHO K1, ATCC: American Type Culture Collection, Manassas, Va. 20108, USA). The test cell line constitutively expresses the calcium-sensitive photoprotein aequorin which, after reconstitution with the cofactor coelenterazine, emits light when the cytoplasmic calcium concentration is increased (Rizzuto R, Simpson A W, Brini M, Pozzan T.; Nature 358 (1992) 325-327). The cell is additionally stably transfected with the human CysLT1 receptor (Lynch et al., Nature 399 (1999) 789-793). The resulting CysLT1R test cell responds to stimulation of the recombinant CysLT1 receptor (agonist: leukotriene D4 (LTD4)) with an intracellular release of calcium ions, which can be quantified through the resulting aequorin luminescence with a suitable luminometer (Milligan G, Marshall F, Rees S, Trends in Pharmacological Sciences 17 (1996) 235-237). Preincubation with antagonists of the CysLT1 receptor reduces the calcium release induced by the agonist LTD4 and thus the measured amount of light.
(§1) Test procedure: The cells are plated out two days before the test in culture medium (DMEM/F12 with Glutamax, Gibco Cat. #61965-026; 10% FCS, Gibco Cat. #10270-106; 1.4 mM sodium pyruvate, Gibco Cat. #11360-039; 1.8 mM sodium bicarbonate, Gibco Cat. #25080-060; 10 mM HEPES, Gibco Cat. #15290-026; now belongs to Invitrogen GmbH, 76131 Karlsruhe) in 384- (or 1536-)well microtiter plates and kept in a cell incubator (96% humidity, 5% v/v CO2, 37° C.). On the day of the test, the culture medium is replaced by Tyrode solution (in mM: 140 NaCl, 5 KCl, 1 MgCl2, 2 CaCl2, 20 glucose, 20 HEPES) which additionally contains the cofactor coelenterazine (50 μM), and the microtiter plate is then incubated for a further 3-4 hours. 15 minutes after the test substances have been transferred into the wells of the microtiter plate, the resulting light signal is measured after addition of the LID4 (3×10^−9 M) in the luminometer.

human CysLT2 receptor = target: T2, human CysLT2 receptor (Homo sapiens, UniProt Q9NS75); experiment: Cellular in vitro test to determine the CysLT2 activity (aequorin luminescence, CHO K1 cells); type: cell-based; details: recombinant CHO K1 cells with aequorin and human CysLT2 receptor; antagonism of LTD4 (3×10^−8 M) induced calcium release; 15 minutes preincubation
T2 construct: expressed in transfected cells; host or cells: CHO K1 cells constitutively expressing aequorin
T2 sequence (Q9NS75 1-346): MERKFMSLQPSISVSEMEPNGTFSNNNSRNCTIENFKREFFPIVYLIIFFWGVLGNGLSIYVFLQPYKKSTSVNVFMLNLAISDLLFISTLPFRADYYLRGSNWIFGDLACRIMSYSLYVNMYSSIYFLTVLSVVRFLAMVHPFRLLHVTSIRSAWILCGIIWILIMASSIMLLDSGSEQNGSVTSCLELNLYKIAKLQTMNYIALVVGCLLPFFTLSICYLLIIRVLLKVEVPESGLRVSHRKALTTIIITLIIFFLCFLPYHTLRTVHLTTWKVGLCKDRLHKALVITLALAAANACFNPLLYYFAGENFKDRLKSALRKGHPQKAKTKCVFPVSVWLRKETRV
From the text: 1. Cellular In Vitro Test to Determine the CysLT2 Activity
A recombinant cell line is used to identify antagonists of the human cysteinyl-leukotriene 2 receptor (CysLT2R) and to quantify the activity of the substances described herein. The cell is originally derived from a hamster ovary epithelial cell (Chinese Hamster Ovary, CHO K1, ATCC: American Type Culture Collection, Manassas, Va. 20108, USA). The test cell line constitutively expresses the calcium-sensitive photoprotein aequorin which, after reconstitution with the cofactor coelenterazine, emits light when the cytoplasmic calcium concentration is increased (Rizzuto R, Simpson A W, Brini M, Pozzan T.; Nature 358 (1992) 325-327). The cell is additionally stably transfected with the human CysLT2 receptor (Heise et.al., JBC 275 (2000) 30531-30536). The resulting CysLT2R test cell responds to stimulation of the recombinant CysLT2 receptor (agonists: leukotriene D4 (LTD4) and leukotriene C4 (LTC4)) with an intracellular release of calcium ions, which can be quantified through the resulting aequorin luminescence with a suitable luminometer (Milligan G, Marshall F, Rees S, Trends in Pharmacological Sciences 17 (1996) 235-237). Preincubation with antagonists of the CysLT2 receptor reduces the calcium release induced by the agonists LTD4 and LTC4 and thus the measured amount of light.
as §1, with “384-(or” for “384- (or”, “[…]” for “3-4”, “LTD4 (3×10^−8” for “LID4 (3×10^−9”

Row | Structure (SMILES) | IC50 (human CysLT1 receptor) [nM] | IC50 (human CysLT2 receptor) [nM]
1 | O=C(O)CCCNC(=O)Cc1cc(C(=O)O)ccc1OCCCc1ccc(OCCCCOc2ccccc2)cc1 [Example 13, 3-{2-[(3-Carboxypropyl)amino]-2-oxoethyl}-4-{3-[4-(4-phenoxybutoxy)phenyl]propoxy}benzoic acid] | > 10000 | 140
2 | O=C(O)c1ccc(OCCCc2ccc(OCCCCOC3CCCCC3)cc2)c(CC(=O)N2CCCC(C(=O)O)C2)c1 (stereo not shown) [Example 25, 1-{[5-Carboxy-2-(3-{4-[4-(cyclohexyloxy)butoxy]phenyl}propoxy)phenyl]acetyl}piperidine-3-carboxylic acid] | > 10000 | 45
3 | O=C(O)CCCNC(=O)Cc1cc(C(=O)O)ccc1OCCCc1ccc(OCCCC2CCCCC2)cc1 [Example 31, 3-{2-[(3-Carboxypropyl)amino]-2-oxoethyl}-4-{3-[4-(3-cyclohexylpropoxy)phenyl]propoxy}-benzoic acid] | > 10000 | 45
4 | O=C(O)c1ccc(OCCCc2ccc(OCCCC3CCCCC3)cc2)c(CC(=O)N2CCC(C(=O)O)CC2)c1 [Example 33, 1-[(5-Carboxy-2-{3-[4-(3-cyclohexylpropoxy)phenyl]propoxy}phenyl)acetyl]piperidine-4-carboxylic acid] | > 3000 | 70
5 | O=C(O)CNC(=O)Cc1cc(C(=O)O)ccc1OCCCc1ccc(OCCCC2CCCCC2)cc1 [Example 45, 3-{2-[(Carboxymethyl)amino]-2-oxoethyl}-4-{3-[4-(3-cyclohexylpropoxy)phenyl]propoxy}-benzoic acid] | > 3000 | 75
